Experimental findings from patent US20240041899A1, “SOLID PREPARATION” (ASKA Pharmaceutical Co., Ltd., priority 2020, published 2024) are described below.

Assay type in all cases: in vivo
The subject of data set [1] is lower urinary tract obstruction model of rats (male). Description: Test Example 2: urination function in lower urinary tract obstruction model of male rats. Particulars: oral once a day 14 days, 10 mg/kg, in comparison with Group C (dutasteride 0.5 mg/kg). The source says:
A lower urinary tract obstruction model of rats was used as a test system. A test substance was orally administered to the lower urinary tract obstruction model repeatedly over 14 days to examine the action on the urination function in the lower urinary tract obstruction model. The lower urinary tract obstruction model is not a benign prostatic hyperplasia model with enlarged prostate.
More specifically, the rats (male, Crl:CD(SD), 8-week-old; Charles River Laboratories Japan, Inc.) were operated to form lower urinary tract obstruction and repeatedly received oral administration of the test substance at a frequency of once a day over 14 days. After the completion of the administration, each rat was subjected to bladder catheterization under anesthesia and cystometry under no anesthesia and was evaluated for the residual urine volume and the urination efficiency.
The test substances and the dosage in the test system (male rats with lower urinary tract obstruction) are as follows. • Solvent group (control group): 0.5 v/v % Polysorbate 80 solution, 10 mL/kg (n=8) • Group A: Compound A, 10 mg/kg (n=12) • Group C: Compound C (dutasteride), 0.5 mg/kg (n=11)

Data set [2] relates to lower urinary tract obstruction model of rats (female). Description: Test Example 1: urination function in lower urinary tract obstruction model of female rats. Particulars: oral once a day 2 weeks, Compound A 10 mg/kg. An excerpt: A lower urinary tract obstruction model of rats was used as a test system. A test substance was orally administered to the lower urinary tract obstruction model repeatedly over two (2) weeks to examine the action on the urination function in the lower urinary tract obstruction model.
More specifically, the rats (female, Crl:CD(SD), 8-week-old; Charles River Laboratories Japan, Inc.) were operated to form lower urinary tract obstruction and repeatedly received oral administration of the test substance at a frequency of once a day over two (2) weeks. After the completion of the administration, each rat was subjected to bladder catheterization under anesthesia, cystometry under no anesthesia, then cystometry under urethane anesthesia, and euthanasia under deep anesthesia, and the tissues (bladder, kidney) of the rat were extracted or surgically removed. As a normal group, the rats without operation for forming lower urinary tract obstruction were used.
The test system, the test substances, and the dosage are as follows. • Normal group: 0.5 v/v % Polysorbate 80 solution, 10 mL/kg (n=6) • Solvent group (control group): 0.5 v/v % Polysorbate 80 solution, 10 mL/kg (n=15) • Group A: Compound A, 10 mg/kg (n=15) • Group B3: Compound B, 3 mg/kg (n=7) • Group B10: Compound B, 10 mg/kg (n=7)
After urination, the residual urine was aspirated from the outlet end of the catheter placed in the bladder to measure the volume (mL) of the residual urine.
After urination, the weight of the voided urine was measured to determine the voided volume (g=mL), and then the urination efficiency was calculated by the following equation: Urination efficiency (%)=[(Voided volume (mL))/(Voided volume (mL)+Residual urine volume (mL))]×100
Bladder capacity (mL)=Voided volume (mL)+Residual urine volume (mL)
Moreover, the wet weight of the extracted bladder and that of the extracted kidney were measured.

For a further data set, the system named is ovariectomized rats. Description: Test Example 5: antiprogesterone activity, uterine weight associated with rat deciduoma formation. Here is the method:
For the compound A and the compound D (mifepristone), the antiprogesterone activity was measured. Specifically, a sex hormone and a test substance were repeatedly administered to ovariectomized rats as a test system to examine the antiprogesterone action (antiprogesterone activity) based on, as an index, the fluctuation of the uterine weight (the inhibitory action relative to the increase of the weight) associated with rat deciduoma formation.
More specifically, rats (female, Crl:CD(SD), 5-week-old: Charles River Laboratories Japan, Inc.) were subjected to ovariectomy, and from one (1) week after the ovariectomy, a high dose estrone of 5 μg/one animal was hypodermically administered to the rats once a day for three (3) days. From the day after one day rest period, the rats received, once a day over eight (8) days, hypodermic administration of a low dose estrone (1 μg/one animal), intramuscular administration of progesterone (6 mg/kg), and oral administration of a test substance. In the middle of the administration, on Day 4 of the start of administration, the rats were subjected to a stimulation treatment of decidualization reaction to the right uterus. The day after the final administration, the uterine weight (right uterine body) was measured (n=6). Group E was subjected to ovariectomy and a stimulation treatment of decidualization reaction but was not subjected to a hormone treatment.
Group E: rats with ovariectomy without hormone treatment 0.5 v/v % Polysorbate 80 solution, 10 mL/kg (n=6) • Solvent group (control group): 0.5 v/v % Polysorbate 80 solution, 10 mL/kg (n=6) • Group A3: Compound A, 3 mg/kg (n=6) • Group A10: Compound A, 10 mg/kg (n=6) • Group A30: Compound A, 30 mg/kg (n=6) • Group D: Compound D (mifepristone), 3 mg/kg (n=6)

Where [3] appears, read: female rats, lower urinary tract obstruction, vs control group.

With `CC(=O)O[C@]1(C(C)=O)C[C@@H](O)[C@H]2[C@@H]3C=C(Cl)C4=CC(=O)OC[C@]4(C)[C@H]3CC[C@@]21C` [Compound A, 17α-acetoxy-6-chloro-15β-hydroxy-2-oxa-4,6-pregnadiene-3,20-dione], in data set [1], the “urination function (the residual urine volume, the urination efficiency)” value is on record as “strong improvement action”. Further, the survival rate entry in data set [2] (female lower urinary tract obstruction rats) is listed as “no decrease”. In data set [2] (female rats, lower urinary tract obstruction), the “wet weights of the bladder and the kidney” value is given as “in the direction of significantly inhibiting the increase”. In addition, in data set [2] (female rats, lower urinary tract obstruction, vs control (solvent) group), the residual urine volume result is reported as “significantly decreased”. In data set [2] (setting [3]), the bladder capacity result is given as “significantly decreased” and the urination efficiency result is on record as “increased”. In the data set on ovariectomized rats (Rattus norvegicus, 192 h, ovariectomized rats, estrone + progesterone, oral 3 mg/kg once a day 8 days, compared with the solvent group, read-out: inhibition rate (increase of uterine weight, deciduoma formation)), the inhibition at 3 mg/kg was 15%. In the data set on ovariectomized rats (Rattus norvegicus, 192 h, ovariectomized rats, estrone + progesterone, oral 10 mg/kg once a day 8 days, compared with the solvent group, read-out: inhibition rate (increase of uterine weight, deciduoma formation)), the inhibition at 10 mg/kg came out at 63%. Besides, the inhibition at 30 mg/kg in the data set on ovariectomized rats (Rattus norvegicus, 192 h, ovariectomized rats, estrone + progesterone, oral 30 mg/kg once a day 8 days, compared with the solvent group, read-out: inhibition rate (increase of uterine weight, deciduoma formation)) turned out to be 83.3%. In the data set with ovariectomized rats (ovariectomized rats, 3, 10, 30 mg/kg oral), the antiprogesterone activity result is “has an antiprogesterone activity”.
